Consider 28 compounds from ChEMBL document CHEMBL6153041, “Discovery of High-Affinity SMARCA2/4 Bromodomain Ligands and Development of Potent and Exceptionally Selective SMARCA2 PROTAC Degraders” (J Med Chem, 2025).

Test [1] concerns the target SWI/SNF-related matrix-associated actin-dependent regulator of chromatin subfamily A member 4 (Homo sapiens, UniProt P51532). Kind of test: Inhibition of recombinant human GST-tagged SMARCA4 bromodomain measured after 120 mins incubation by TR-FRET assay.
Test [2] addresses SWI/SNF-related matrix-associated actin-dependent regulator of chromatin subfamily A member 2 (Homo sapiens, UniProt P51531). Kind of test: Inhibition of recombinant human GST-tagged SMARCA2 bromodomain measured after 120 mins incubation by TR-FRET assay.
Test [3] concerns the target T1, von Hippel-Lindau disease tumor suppressor/SWI/SNF-related matrix-associated actin-dependent regulator of chromatin subfamily A member 2 (Homo sapiens, UniProt P51531+P40337). Kind of test: PROTAC activity at VHL1/SMARCA2 in human genetically modified Hela cells assessed as maximal degradation measured after 24 hrs incubation by Nano-Glo HiBiT Lytic Detection Assay relative to control. It is filed as cell-based.
Target sequence in this assay (P40337 whole entry, looked up): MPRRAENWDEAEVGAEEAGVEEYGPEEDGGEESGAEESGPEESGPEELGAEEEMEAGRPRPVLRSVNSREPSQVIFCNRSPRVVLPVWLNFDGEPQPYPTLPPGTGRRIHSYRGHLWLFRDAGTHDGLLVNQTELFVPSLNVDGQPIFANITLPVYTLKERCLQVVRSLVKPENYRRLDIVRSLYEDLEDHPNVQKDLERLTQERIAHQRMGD
Target sequence in this assay (P51531 whole entry, looked up): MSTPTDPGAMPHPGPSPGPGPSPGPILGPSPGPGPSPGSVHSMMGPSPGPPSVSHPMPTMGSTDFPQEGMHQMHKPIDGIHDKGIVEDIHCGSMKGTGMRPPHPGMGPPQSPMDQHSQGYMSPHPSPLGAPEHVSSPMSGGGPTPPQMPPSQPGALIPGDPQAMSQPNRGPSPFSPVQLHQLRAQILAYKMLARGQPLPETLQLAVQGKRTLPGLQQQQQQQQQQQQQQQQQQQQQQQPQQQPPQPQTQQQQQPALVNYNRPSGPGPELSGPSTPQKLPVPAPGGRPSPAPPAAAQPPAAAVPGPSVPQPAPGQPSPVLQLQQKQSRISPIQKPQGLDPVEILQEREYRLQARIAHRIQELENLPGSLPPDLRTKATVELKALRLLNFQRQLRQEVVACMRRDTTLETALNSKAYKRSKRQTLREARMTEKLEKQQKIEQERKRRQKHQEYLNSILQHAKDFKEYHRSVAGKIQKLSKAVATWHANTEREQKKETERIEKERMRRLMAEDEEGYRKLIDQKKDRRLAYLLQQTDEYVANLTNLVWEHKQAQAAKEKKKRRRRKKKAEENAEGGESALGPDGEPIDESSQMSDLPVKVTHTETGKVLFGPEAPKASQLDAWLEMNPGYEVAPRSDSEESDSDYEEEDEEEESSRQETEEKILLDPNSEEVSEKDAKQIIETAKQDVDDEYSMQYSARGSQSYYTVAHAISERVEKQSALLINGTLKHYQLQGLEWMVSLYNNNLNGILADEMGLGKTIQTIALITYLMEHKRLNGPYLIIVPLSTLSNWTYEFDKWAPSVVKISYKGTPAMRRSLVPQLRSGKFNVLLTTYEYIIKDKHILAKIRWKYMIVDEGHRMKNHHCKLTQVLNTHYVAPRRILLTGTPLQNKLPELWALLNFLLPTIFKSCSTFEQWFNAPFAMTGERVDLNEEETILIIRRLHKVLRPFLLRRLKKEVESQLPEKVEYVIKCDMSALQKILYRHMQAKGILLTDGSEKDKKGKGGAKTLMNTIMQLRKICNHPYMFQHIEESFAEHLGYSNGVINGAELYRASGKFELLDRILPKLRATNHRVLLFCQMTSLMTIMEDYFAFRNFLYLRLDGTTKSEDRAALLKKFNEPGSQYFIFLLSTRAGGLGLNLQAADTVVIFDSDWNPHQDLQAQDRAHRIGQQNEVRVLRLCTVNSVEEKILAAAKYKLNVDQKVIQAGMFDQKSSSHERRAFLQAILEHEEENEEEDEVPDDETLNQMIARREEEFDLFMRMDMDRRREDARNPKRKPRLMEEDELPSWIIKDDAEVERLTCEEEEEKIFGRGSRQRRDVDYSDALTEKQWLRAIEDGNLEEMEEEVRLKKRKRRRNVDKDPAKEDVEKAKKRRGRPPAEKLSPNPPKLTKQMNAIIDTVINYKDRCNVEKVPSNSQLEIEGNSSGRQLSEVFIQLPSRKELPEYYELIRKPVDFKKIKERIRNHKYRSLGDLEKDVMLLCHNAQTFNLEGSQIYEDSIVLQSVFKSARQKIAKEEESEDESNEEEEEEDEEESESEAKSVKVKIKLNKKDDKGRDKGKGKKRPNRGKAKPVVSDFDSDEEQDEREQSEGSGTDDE

Another test deals with HeLa. Kind of test: Selectivity ratio, ratio of DC50 for VHL1/SMARCA4 in human genetically modified Hela cells to VHL1/SMARCA2 in human genetically modified Hela cells. It is filed as cell-based.
For test [4], the target named is T2, von Hippel-Lindau disease tumor suppressor/SWI/SNF-related matrix-associated actin-dependent regulator of chromatin subfamily A member 4 (Homo sapiens, UniProt P51532+P40337). Kind of test: PROTAC activity at VHL1/SMARCA4 in human genetically modified Hela cells assessed as maximal degradation measured after 24 hrs incubation by Nano-Glo HiBiT Lytic Detection Assay relative to control. It counts as cell-based.
Target sequence in this assay (P40337 whole entry, looked up): as the sequence (P40337 whole entry, looked up) above
Target sequence in this assay (P51532 whole entry, looked up): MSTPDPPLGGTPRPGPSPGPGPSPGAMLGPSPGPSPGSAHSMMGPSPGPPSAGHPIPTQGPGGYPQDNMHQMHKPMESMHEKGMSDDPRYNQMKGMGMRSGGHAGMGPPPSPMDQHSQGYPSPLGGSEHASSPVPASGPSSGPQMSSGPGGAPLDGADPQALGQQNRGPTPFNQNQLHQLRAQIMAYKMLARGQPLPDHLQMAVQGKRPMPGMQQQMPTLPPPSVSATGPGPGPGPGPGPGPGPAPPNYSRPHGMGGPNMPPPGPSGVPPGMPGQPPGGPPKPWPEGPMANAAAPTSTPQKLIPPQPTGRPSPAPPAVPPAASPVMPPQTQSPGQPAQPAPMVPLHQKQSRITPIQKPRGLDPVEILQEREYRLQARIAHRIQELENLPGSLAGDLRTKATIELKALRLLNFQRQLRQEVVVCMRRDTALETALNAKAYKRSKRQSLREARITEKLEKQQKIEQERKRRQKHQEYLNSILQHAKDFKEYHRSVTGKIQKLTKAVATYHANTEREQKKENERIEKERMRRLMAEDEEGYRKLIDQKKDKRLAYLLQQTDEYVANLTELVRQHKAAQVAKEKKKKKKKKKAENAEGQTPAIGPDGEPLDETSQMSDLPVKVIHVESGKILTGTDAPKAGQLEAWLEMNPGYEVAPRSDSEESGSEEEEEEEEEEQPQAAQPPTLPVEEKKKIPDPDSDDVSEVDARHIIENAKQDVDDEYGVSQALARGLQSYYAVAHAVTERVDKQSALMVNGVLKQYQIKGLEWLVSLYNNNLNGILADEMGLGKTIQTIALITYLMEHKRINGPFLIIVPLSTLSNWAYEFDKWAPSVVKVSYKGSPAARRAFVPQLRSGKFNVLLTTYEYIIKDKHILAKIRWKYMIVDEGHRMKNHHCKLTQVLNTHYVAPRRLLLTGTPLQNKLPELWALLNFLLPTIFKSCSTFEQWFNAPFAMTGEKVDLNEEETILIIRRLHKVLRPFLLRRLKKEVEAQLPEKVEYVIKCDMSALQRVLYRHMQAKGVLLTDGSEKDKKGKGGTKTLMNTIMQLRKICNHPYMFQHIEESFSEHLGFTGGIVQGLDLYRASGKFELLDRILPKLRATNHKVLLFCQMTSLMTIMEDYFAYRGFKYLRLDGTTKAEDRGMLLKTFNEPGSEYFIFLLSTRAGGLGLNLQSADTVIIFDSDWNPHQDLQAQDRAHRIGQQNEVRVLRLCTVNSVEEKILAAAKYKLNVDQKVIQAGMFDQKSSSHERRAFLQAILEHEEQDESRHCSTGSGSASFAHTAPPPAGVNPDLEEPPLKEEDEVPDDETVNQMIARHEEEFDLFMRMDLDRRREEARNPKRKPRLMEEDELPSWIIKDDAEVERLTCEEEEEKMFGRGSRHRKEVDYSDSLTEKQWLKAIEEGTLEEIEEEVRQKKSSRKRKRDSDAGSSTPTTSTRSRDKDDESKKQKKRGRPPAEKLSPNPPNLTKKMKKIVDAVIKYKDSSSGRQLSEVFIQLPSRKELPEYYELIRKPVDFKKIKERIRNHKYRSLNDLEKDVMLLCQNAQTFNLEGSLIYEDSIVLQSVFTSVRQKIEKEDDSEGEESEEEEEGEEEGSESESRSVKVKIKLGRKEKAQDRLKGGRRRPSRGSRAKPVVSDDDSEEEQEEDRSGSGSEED

For test [5], the target named is T2, von Hippel-Lindau disease tumor suppressor/SWI/SNF-related matrix-associated actin-dependent regulator of chromatin subfamily A member 4. The test can be described thus: PROTAC activity at VHL1/SMARCA4 in human genetically modified Hela cells assessed as degradation measured after 24 hrs incubation by Nano-Glo HiBiT Lytic Detection Assay. It is filed as cell-based.
Target sequence in this assay (P51532 whole entry): as the sequence (P51532 whole entry, looked up) above
Target sequence in this assay (P40337 whole entry): as the sequence (P40337 whole entry, looked up) above

The target in test [6] is T1, von Hippel-Lindau disease tumor suppressor/SWI/SNF-related matrix-associated actin-dependent regulator of chromatin subfamily A member 2. Kind of test: PROTAC activity at VHL1/SMARCA2 in human genetically modified Hela cells assessed as degradation measured after 24 hrs incubation by Nano-Glo HiBiT Lytic Detection Assay. It counts as cell-based.
Target sequence in this assay (P51531 whole entry): as the sequence (P51531 whole entry, looked up) above
Target sequence in this assay (P40337 whole entry): as the sequence (P40337 whole entry, looked up) above

Chain of SWI/SNF-related matrix-associated actin-dependent regulator of chromatin subfamily A member 4 (P51532 whole entry): as the sequence (P51532 whole entry, looked up) above
Chain of SWI/SNF-related matrix-associated actin-dependent regulator of chromatin subfamily A member 2 (P51531 whole entry): as the sequence (P51531 whole entry, looked up) above

In the case of `CCc1cccc2c1c(=O)nc1n2-c2cc(C3CCNCC3)ccc2C12CCCCC2`, the figures for the IC50 in test [1] and in test [2] were 2840 nM and 3400 nM, respectively.
In the same order, the values of `O=c1nc2n(c3ccnc(O)c13)-c1cc(C3CCNCC3)ccc1C21CCCCC1` are over 10000 nM and over 10000 nM.
Take `Cc1ncsc1-c1ccc([C@H](C)NC(=O)[C@@H]2C[C@@H](O)CN2C(=O)[C@@H](NC(=O)CCCN2CCC(c3ccc4c(c3)C3(CCCCC3)c3nc(=O)c5c(Cl)cccc5n3-4)CC2)C(C)(C)C)cc1`: the results for the maximal response (Emax) in test [3] and in test [4] were 87% and 70%, respectively. The Ratio in the test with HeLa came out at 115. Moreover, the DC50 in test [5] was 7000 nM; in test [6], 61 nM.
In the same order, the values of `Cc1ncsc1-c1ccc([C@H](C)NC(=O)[C@@H]2C[C@@H](O)CN2C(=O)[C@@H](NC(=O)[C@H]2CC[C@H](CN3CC4(CCC(n5cc(-c6cc(-c7ccccc7O)nnc6N)cn5)CC4)C3)CC2)C(C)(C)C)cc1` are 93%, 52%, 39, 895 nM and 23 nM.
As to `O=c1nc2n(c3cccc(Br)c13)-c1cc(C3CCNCC3)ccc1C21CCCCC1`, the IC50 in test [1] was found to be 90 nM; in test [2], 64 nM.
As to `Cc1ncsc1-c1ccc([C@H](CCCCCN2CCC(c3ccc4c(c3)C3(CCCCC3)c3nc(=O)c5c(Br)cccc5n3-4)CC2)NC(=O)[C@@H]2C[C@@H](O)CN2C(=O)[C@@H](NC(=O)C2(F)CC2)C(C)(C)C)cc1`, the Emax in test [3] and in test [4] was 97% in each case. Besides, in the test with HeLa, the Ratio was found to be 7. Further, the half-maximal degradation concentration (DC50) amounted to 1.7 nM in test [5] and 0.24 nM in test [6].
`O=c1nc2n(c3nccc(O)c13)-c1cc(C3CCNCC3)ccc1C21CCCCC1`: the IC50 in test [1] and in test [2] was over 10000 nM in each case.
With `Cc1ncsc1-c1ccc([C@H](C)NC(=O)[C@@H]2C[C@@H](O)CN2C(=O)[C@@H](c2cc(N3CCC(CN4CCC(O[C@H]5C[C@H](Oc6cc(CN7C8CCC7CN(c7cc(-c9ccccc9O)nnc7N)C8)ccn6)C5)CC4)CC3)no2)C(C)C)cc1`, the values for the Emax in test [3] and in test [4] were 97% and 96%, respectively. Also, the Ratio in the test on HeLa was 13. Besides, the DC50 in test [5] is 1.3 nM; in test [6], 0.1 nM.
Regarding `O=c1nc2n(C3CCCC3)c3cc(C4CCNCC4)ccc3n2c2cccc(Br)c12`, the IC50 came to 83 nM in test [1] and 45 nM in test [2].
In the case of `Cc1ncsc1-c1ccc([C@H](C)NC(=O)[C@@H]2C[C@@H](O)CN2C(=O)[C@@H](NC(=O)[C@H]2CC[C@H](CN3CCC(c4ccc5c(c4)C4(CCCCC4)c4nc(=O)c6c(Br)cccc6n4-5)CC3)CC2)C(C)(C)C)cc1`, the Emax in test [3] came to 93%; in test [4], 58%. The Ratio in the test with HeLa worked out at 54. Further, the figures for the DC50 in test [5] and in test [6] were 162 nM and 3 nM, respectively.
Turning to `O=c1nc2n(c3cccc(Cl)c13)-c1ccc(C3CCNCC3)cc1C21CCCCC1`, in test [2], the 50% inhibitory concentration (IC50) is 53 nM.
For the compound `O=c1nc2n(c3cccc(Cl)c13)-c1ccc(C3CCNCC3)cc1C21CCOCC1`, the IC50 was 612 nM in test [1] and 538 nM in test [2].
For `O=c1nc2n(c3cccc(O)c13)-c1cc(C3CCNCC3)ccc1C21CCCCC1`, in that order: 3210 nM and 4520 nM.
In the case of `O=c1nc2n(c3cccc(Br)c13)-c1ccc(C3CCNCC3)cc1C21CCCCC1`, the IC50 in test [1] worked out at 38 nM; in test [2], 30 nM.
Regarding `Cc1ncsc1-c1ccc([C@H](C)NC(=O)[C@@H]2C[C@@H](O)CN2C(=O)[C@@H](NC(=O)[C@H]2CC[C@H](CN3CCC(c4ccc5c(c4)-n4c(nc(=O)c6c(Br)cccc64)C54CCCCC4)CC3)CC2)C(C)(C)C)cc1`, the figures for the Emax in test [3] and in test [4] were 88% and 37%, respectively. Besides, in the test with HeLa, the Ratio is over 700. In addition, the DC50 in test [5] was over 10000 nM; in test [6], 14 nM.
For `Cc1ncsc1-c1ccc([C@H](CCCCCN2CCC(c3ccc4c(c3)-n3c(nc(=O)c5c(Cl)cccc53)C43CCCCC3)CC2)NC(=O)[C@@H]2C[C@@H](O)CN2C(=O)[C@@H](NC(=O)C2(F)CC2)C(C)(C)C)cc1`, in that order: 92%, 87%, 3, 22 nM and 7.5 nM.
Take `Cc1ncsc1-c1ccc([C@H](C)NC(=O)[C@@H]2C[C@@H](O)CN2C(=O)[C@@H](NC(=O)CN2CCC(c3ccc4c(c3)C3(CCCCC3)c3nc(=O)c5c(Cl)cccc5n3-4)CC2)C(C)(C)C)cc1`: the Emax in test [3] and in test [4] was 97% in each case. The Ratio with HeLa worked out at 2. In addition, the DC50 was 8.7 nM in test [5] and 5.3 nM in test [6].
As for `Cc1ncsc1-c1ccc([C@H](CCCCCN2CCC(c3ccc4c(c3)-n3c(nc(=O)c5c(Br)cccc53)C43CCCCC3)CC2)NC(=O)[C@@H]2C[C@@H](O)CN2C(=O)[C@@H](NC(=O)C2(F)CC2)C(C)(C)C)cc1`, the Emax in test [3] worked out at 95%; in test [4], 93%. Besides, the Ratio in the test with HeLa was determined as 28. Also, the DC50 came out at 84 nM in test [5] and 3 nM in test [6].
As for `O=c1nc2n(c3cccc(Cl)c13)-c1cc(C3CCNCC3)ccc1C21CCOCC1`, the IC50 turned out to be 1150 nM in test [1] and 630 nM in test [2].
In the same order, the values of `O=c1nc2n(c3cccc(Cl)c13)-c1ccc(C3CCNCC3)cc1C21CCCCCC1` are 129 nM and 153 nM.
For `O=c1nc2n(c3cccc(Cl)c13)-c1ccc(C3CCNCC3)cc1C21CCNCC1`, in that order: 3340 nM and 3450 nM.
`O=c1nc2n(c3cccc(Br)c13)-c1ccc(C3CCNCC3)cc1C21CCCC1`: the IC50 in test [1] turned out to be 51 nM; in test [2] it was 62 nM.
As for `Cc1ncsc1-c1ccc([C@H](C)NC(=O)[C@@H]2C[C@@H](O)CN2C(=O)[C@@H](NC(=O)CCCCCN2CCC(c3ccc4c(c3)C3(CCCCC3)c3nc(=O)c5c(Cl)cccc5n3-4)CC2)C(C)(C)C)cc1`, the Emax was found to be 94% in test [3] and 55% in test [4]. The Ratio in the test with HeLa is 24. Besides, the half-maximal degradation concentration (DC50) in test [5] worked out at 697 nM; in test [6], 29 nM.
For the compound `O=c1nc2n(c3cccc(Cl)c13)-c1cc(C3CCNCC3)ccc1C21CCCC1`, the results for the IC50 in test [1] and in test [2] were 133 nM and 106 nM, respectively.
In the same order, the values of `O=c1nc2n(c3cccc(Cl)c13)-c1ccc(C3CCNCC3)cc1C21CCCC1` are 55 nM and 56 nM.
For `O=c1nc2n(c3ccccc13)-c1cc(C3CCNCC3)ccc1C21CCCCC1`, in that order: 1440 nM and 3070 nM.
Take `Cc1ncsc1-c1ccc([C@H](C)NC(=O)[C@@H]2C[C@@H](O)CN2C(=O)[C@@H](NC(=O)[C@H]2CC[C@H](CN3CCC(c4ccc5c(c4)C4(CCCCC4)c4nc(=O)c6c(Cl)cccc6n4-5)CC3)CC2)C(C)(C)C)cc1`: the results for the Emax in test [3] and in test [4] were 92% and 48%, respectively. In the test on HeLa, the Ratio is over 1500. For the same compound, the DC50 in test [5] was over 10000 nM.
As to `Cc1ncsc1-c1ccc([C@H](C)NC(=O)[C@@H]2C[C@@H](O)CN2C(=O)[C@@H](NC(=O)CCN2CCC(c3ccc4c(c3)C3(CCCCC3)c3nc(=O)c5c(Cl)cccc5n3-4)CC2)C(C)(C)C)cc1`, the maximal effect (Emax) in test [3] is 93%; in test [4], 77%. Further, the Ratio with HeLa came out at 6. The values for the DC50 in test [5] and in test [6] were 543 nM and 99 nM, respectively.
